Our source for the EC50 values is PubChem BioAssay AID652002 (Sanford-Burnham Center for Chemical Genomics, 2013).

Active and inactive are the calls of the source. How the calls were made is not given here. Some results are limits rather than exact numbers.

Experiment [1] concerns the target Tumor necrosis factor receptor superfamily member 10B (Homo sapiens) (UniProt O14763). The experiment is described as follows: TRAIL sensitizers in caspase-8 expressing neuroblastoma cells, dose response, NB7 cells plus caspase-8, luminescence, panel (AID 652002). To be noted: NB7 neuroblastoma +caspase-8, TRAIL sensitization, luminescence viability; NB7+Caspase-8; with TRAIL, mean of runs.

For a further experiment, the target named is NB7+Caspase-8. The description is as above. To be noted: NB7 neuroblastoma +caspase-8, TRAIL sensitization, luminescence viability, with TRAIL.
Test in experiment [2]: as above
The conditions noted are these: NB7 neuroblastoma +caspase-8, no TRAIL, compound-alone cytotoxicity counter-screen, luminescence viability, NB7+Caspase-8.

[3] abbreviates: run 1, single replicate panel EC50.
The mark [4] stands for this setting: run 2, single replicate panel EC50.

Tumor necrosis factor receptor superfamily member 10B (Homo sapiens), sequence (O14763 whole entry, looked up): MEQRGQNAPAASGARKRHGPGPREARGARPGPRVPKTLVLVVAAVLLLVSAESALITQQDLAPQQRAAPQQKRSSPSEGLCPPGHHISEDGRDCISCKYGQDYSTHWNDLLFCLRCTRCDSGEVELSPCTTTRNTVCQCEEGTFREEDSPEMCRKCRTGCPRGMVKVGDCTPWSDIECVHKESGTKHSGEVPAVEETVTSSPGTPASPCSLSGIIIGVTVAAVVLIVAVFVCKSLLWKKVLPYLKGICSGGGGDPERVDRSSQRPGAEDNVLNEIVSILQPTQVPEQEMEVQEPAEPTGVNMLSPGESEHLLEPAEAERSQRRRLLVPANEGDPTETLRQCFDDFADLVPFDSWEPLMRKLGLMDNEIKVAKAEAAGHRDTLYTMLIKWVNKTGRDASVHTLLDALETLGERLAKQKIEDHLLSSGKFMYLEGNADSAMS

As a reminder, the EC50 is the midpoint of the concentration-response curve. `COc1ccc2sc(-c3ccc(S(C)(=O)=O)cc3)c(C#Cc3cncn3C)c2c1`: the EC50 in experiment [1] was > 12.5 µM (inactive); at NB7+Caspase-8 (setting [3]) it was over 12.5 µM; at NB7+Caspase-8 (setting [4]), over 12.5 µM; in experiment [2] (mean of runs) it was > 12.5 µM (inactive); in experiment [2] (setting [3]), over 12.5 µM; in experiment [2] (setting [4]), over 12.5 µM.
Regarding `O=C(N/N=C/c1cccnc1)c1ccc2c(c1)OCO2`, the EC50 in experiment [1] was > 12.5 µM (inactive); on NB7+Caspase-8 (setting [3]) it was over 12.5 µM; on NB7+Caspase-8 (setting [4]), over 12.5 µM; in experiment [2] (setting [3]), 11.2 µM; in experiment [2] (setting [4]), over 12.5 µM. In addition, the EC50 entry in experiment [2] (mean of runs) is “inactive”.
With `CCCCCCc1cc2cc(S(=O)(=O)c3ccc(F)c(Cl)c3)c(=O)oc2cc1O`, the EC50 was > 12.5 µM (inactive) in experiment [1]; over 12.5 µM on NB7+Caspase-8 (setting [3]); over 12.5 µM on NB7+Caspase-8 (setting [4]); > 12.5 µM (inactive) in experiment [2] (mean of runs); over 12.5 µM in experiment [2] (setting [3]); over 12.5 µM in experiment [2] (setting [4]).
`Cc1c(P(=S)(c2ccccc2)c2ccccc2)[n+]2ccccc2n1CCc1ccccc1`: the EC50 in experiment [1] was > 12.5 µM (inactive); at NB7+Caspase-8 (setting [3]), over 12.5 µM; at NB7+Caspase-8 (setting [4]) it was over 12.5 µM; in experiment [2] (mean of runs) it was > 12.5 µM (inactive); in experiment [2] (setting [3]), over 12.5 µM; in experiment [2] (setting [4]), over 12.5 µM.
Consider `COc1ccc(/C(C)=N/Nc2nncc3ccccc23)cc1`, for which the EC50 entry in experiment [1] was “inactive”. Further, the concentration for a half-maximal effect (EC50) on NB7+Caspase-8 (setting [3]) was 7.33 µM; at NB7+Caspase-8 (setting [4]) it was over 12.5 µM; in experiment [2] (mean of runs), > 12.5 µM (inactive); in experiment [2] (setting [3]), over 12.5 µM; in experiment [2] (setting [4]), over 12.5 µM.
With `O=c1[nH]c(N/N=C\c2ccc3c(c2)OCO3)nc2ccccc12`, the EC50 entry in experiment [1] and in experiment [2] (mean of runs) was “inactive” each time. The concentration for a half-maximal effect (EC50) is over 12.5 µM at NB7+Caspase-8 (setting [3]), 10.1 µM at NB7+Caspase-8 (setting [4]), over 12.5 µM in experiment [2] (setting [3]) and 10.9 µM in experiment [2] (setting [4]).
As to `CC(C)C(=O)Nc1ccc(NC(=O)c2ccccn2)cn1`, the EC50 result in experiment [1] and in experiment [2] (mean of runs) was “inactive” in each case. Moreover, the EC50 is over 12.5 µM on NB7+Caspase-8 (setting [3]), 9.78 µM on NB7+Caspase-8 (setting [4]), over 12.5 µM in experiment [2] (setting [3]) and 11.6 µM in experiment [2] (setting [4]).
Turning to `CCOC(=O)c1ccc(N/C=C/C(=O)c2ccco2)cc1`, the EC50 is > 12.5 µM (inactive) in experiment [1]; over 12.5 µM at NB7+Caspase-8 (setting [3]); over 12.5 µM at NB7+Caspase-8 (setting [4]); > 12.5 µM (inactive) in experiment [2] (mean of runs); over 12.5 µM in experiment [2] (setting [3]); over 12.5 µM in experiment [2] (setting [4]).
As to `O=C(NCC1CCCO1)c1ccc2c3n(nc2c1)-c1ccccc1CO3` (stereo not given), the EC50 result in experiment [1] is “inactive”. Also, the EC50 is over 12.5 µM on NB7+Caspase-8 (setting [3]); 8.3 µM at NB7+Caspase-8 (setting [4]); > 12.5 µM (inactive) in experiment [2] (mean of runs); over 12.5 µM in experiment [2] (setting [3]); over 12.5 µM in experiment [2] (setting [4]).
Turning to `CN1C[C@@H]2[C@@H]3C(=O)N(Cc4ccccc4)C(=O)[C@@H]3[C@](Cc3ccccc3)(C1=O)N2C(=O)c1ccc(C(C)(C)C)cc1`, the EC50 was > 12.5 µM (inactive) in experiment [1]; over 12.5 µM at NB7+Caspase-8 (setting [3]); over 12.5 µM at NB7+Caspase-8 (setting [4]); > 12.5 µM (inactive) in experiment [2] (mean of runs); over 12.5 µM in experiment [2] (setting [3]); over 12.5 µM in experiment [2] (setting [4]).
For `O=C(Nc1ccc2c(c1)OCCO2)NC1CCCCC1`, the EC50 entry in experiment [1] is “inactive”. Besides, the 50% effective concentration (EC50) on NB7+Caspase-8 (setting [3]) was over 12.5 µM; at NB7+Caspase-8 (setting [4]), 12 µM; in experiment [2] (mean of runs) it was > 12.5 µM (inactive); in experiment [2] (setting [3]) it was over 12.5 µM; in experiment [2] (setting [4]), over 12.5 µM.
`COCCCn1c(C(=O)Nc2ccc3c(c2)OCO3)cc2c(=O)n3cccc(C)c3nc21`: the EC50 in experiment [1] is > 12.5 µM (inactive); at NB7+Caspase-8 (setting [3]) it was over 12.5 µM; on NB7+Caspase-8 (setting [4]), over 12.5 µM; in experiment [2] (mean of runs) it was > 12.5 µM (inactive); in experiment [2] (setting [3]), over 12.5 µM; in experiment [2] (setting [4]) it was over 12.5 µM.
Regarding `C#CC(=O)CC1(CN(Cc2ccccc2)C(=O)OC(C)(C)C)CCCCC1`, the EC50 entry in experiment [1] and in experiment [2] (mean of runs) was “inactive” in each case. Besides, the EC50 at NB7+Caspase-8 (setting [3]) amounted to 3.12 µM; at NB7+Caspase-8 (setting [4]), 7.51 µM; in experiment [2] (setting [3]), 7.26 µM; in experiment [2] (setting [4]), 1.52 µM.
For the compound `Cc1cc(-c2ccccc2)nc(Nc2nc3c(C)cccc3c(=O)[nH]2)n1`, the EC50 is > 12.5 µM (inactive) in experiment [1]; over 12.5 µM on NB7+Caspase-8 (setting [3]); over 12.5 µM at NB7+Caspase-8 (setting [4]); > 12.5 µM (inactive) in experiment [2] (mean of runs); over 12.5 µM in experiment [2] (setting [3]); over 12.5 µM in experiment [2] (setting [4]).
In the case of `O=C(N/N=C/c1cccc(OC(=O)c2ccco2)c1)c1ccc(F)cc1`, the EC50 entry in experiment [1] and in experiment [2] (mean of runs) was “inactive” throughout. The 50% effective concentration (EC50) amounted to 4.82 µM at NB7+Caspase-8 (setting [3]), 4.55 µM at NB7+Caspase-8 (setting [4]), 4.46 µM in experiment [2] (setting [3]) and 7.04 µM in experiment [2] (setting [4]).
